Results on 1 molecule are retold here after paper PMC6300978 (Chemico-biological interactions, 2015).

Several values for one entry are separate records, joined by “and”; a condition that tells them apart may be missing. Equal entries are not always repeated.

The Vmax is the rate approached at saturating substrate. What is called Km is the concentration of substrate that gives half-maximal velocity.

Common to all, as to assay type: in vitro ADME
Data set [1] is described as follows: GA glucuronidation kinetics in human intestinal microsomes. Particulars: for microsomal CLint: human intestinal microsomes.
Data set [2] in a line: GA glucuronidation kinetics in human liver microsomes. Particulars: HLM; for microsomal CLint / Km at 60 min: both, human; for microsomal CLint: human liver microsomes; for Km at 60 min: liver microsomes, pH 7.4, Km (KS), Michaelis–Menten. A general note: Microsomes from liver hold many membrane-bound enzymes, among them those of drug oxidation.
For a further data set, the target named is T1, recombinant human UGT1A9 (Homo sapiens, UniProt O60656).
T1 sequence (O60656 26-530): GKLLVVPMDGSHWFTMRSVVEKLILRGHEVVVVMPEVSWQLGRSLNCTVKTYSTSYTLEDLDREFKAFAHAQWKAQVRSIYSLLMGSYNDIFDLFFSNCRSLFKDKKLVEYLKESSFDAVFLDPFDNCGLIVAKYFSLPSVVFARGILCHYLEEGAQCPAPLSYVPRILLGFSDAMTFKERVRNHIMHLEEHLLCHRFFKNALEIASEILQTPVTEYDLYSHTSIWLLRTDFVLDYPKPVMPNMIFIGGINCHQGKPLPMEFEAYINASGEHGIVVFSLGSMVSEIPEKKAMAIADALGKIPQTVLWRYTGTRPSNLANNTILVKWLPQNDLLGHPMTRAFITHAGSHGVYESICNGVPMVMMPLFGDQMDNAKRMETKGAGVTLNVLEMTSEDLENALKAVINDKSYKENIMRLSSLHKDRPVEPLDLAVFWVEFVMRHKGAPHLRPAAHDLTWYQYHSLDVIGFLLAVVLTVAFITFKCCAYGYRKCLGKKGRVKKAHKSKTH
As to the kind of experiment: GA glucuronidation by recombinant UGT1A9. To be noted: UGT1A9, whole range of substrate concentrations.

A further data set has as its target T2, UGT1A10 (Homo sapiens, UniProt Q9HAW8).
T2 sequence (Q9HAW8 26-530): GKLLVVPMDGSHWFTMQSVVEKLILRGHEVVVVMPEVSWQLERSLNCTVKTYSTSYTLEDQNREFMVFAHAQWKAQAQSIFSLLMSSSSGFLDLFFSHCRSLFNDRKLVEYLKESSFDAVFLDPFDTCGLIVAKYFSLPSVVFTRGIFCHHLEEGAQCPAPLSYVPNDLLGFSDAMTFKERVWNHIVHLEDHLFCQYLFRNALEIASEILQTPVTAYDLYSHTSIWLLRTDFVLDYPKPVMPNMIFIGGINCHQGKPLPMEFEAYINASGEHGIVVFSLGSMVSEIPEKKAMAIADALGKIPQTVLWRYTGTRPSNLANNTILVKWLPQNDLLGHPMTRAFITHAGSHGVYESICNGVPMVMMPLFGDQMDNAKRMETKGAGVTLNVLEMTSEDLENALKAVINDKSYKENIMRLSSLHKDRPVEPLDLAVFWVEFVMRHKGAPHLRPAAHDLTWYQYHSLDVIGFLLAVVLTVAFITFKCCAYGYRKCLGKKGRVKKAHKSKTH
As to the kind of experiment: GA glucuronidation kinetics by recombinant UGT1A10.

The next data set has as its target T3, UGT1A8 (Homo sapiens, UniProt Q9HAW9).
T3 sequence (Q9HAW9 26-530): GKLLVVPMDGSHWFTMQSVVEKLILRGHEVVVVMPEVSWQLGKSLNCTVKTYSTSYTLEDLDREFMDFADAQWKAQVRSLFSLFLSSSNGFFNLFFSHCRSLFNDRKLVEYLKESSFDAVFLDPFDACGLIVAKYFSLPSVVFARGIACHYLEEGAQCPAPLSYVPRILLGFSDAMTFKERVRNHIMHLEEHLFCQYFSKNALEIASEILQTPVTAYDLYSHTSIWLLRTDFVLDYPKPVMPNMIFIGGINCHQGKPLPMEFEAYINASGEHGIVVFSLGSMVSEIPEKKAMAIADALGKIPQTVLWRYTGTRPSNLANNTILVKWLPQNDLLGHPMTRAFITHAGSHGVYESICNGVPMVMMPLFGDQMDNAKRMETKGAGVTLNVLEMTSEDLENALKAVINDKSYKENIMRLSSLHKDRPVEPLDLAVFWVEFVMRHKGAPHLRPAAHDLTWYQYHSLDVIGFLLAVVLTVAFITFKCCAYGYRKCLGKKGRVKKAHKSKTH
As to the kind of experiment: GA glucuronidation by recombinant UGT1A8.

Consider `CC1(C)C=Cc2c(ccc3c2OC[C@@H](c2ccc(O)cc2O)C3)O1` [GA, glabridin], for which the “Clint of HIM relative to HLM” value in data set [1] (GA glucuronidation, Table 2) is “more than 100 fold”. The Vmax was 16.7 ± 7.4 nmol/min/mg in data set [1] (HIM, M2 formation); 0.044 ± 0.005 nmol/min/mg in data set [2] (M1 formation); 0.25 ± 0.03 nmol/min/mg in data set [2] (M2 formation); 0.50 ± 0.10 nmol/min/mg and 0.5 ± 0.1 nmol/min/mg at UGT1A10 (UGT1A10, M2 formation). The microsomal CLint in data set [1] (both, human, pH 7.4, Clint, HIM, M2 formation) was found to be 2010 µL/min/mg; in data set [1] (both, human, pH 7.4, Clint, HIM, M2 formation (text)), 2000 µL/min/mg; in data set [1] (both, human, pH 7.4, Cltotal, HIM), 2010 µL/min/mg; in data set [2] (pH 7.4, Clint, M1 formation, Vmax/Km) it was 7 µL/min/mg; in data set [2] (pH 7.4, Clint, M2 formation, Vmax/Km), 10 µL/min/mg; in data set [2] (pH 7.4, Cltotal, M1 + M2), 17 µL/min/mg. Also, the microsomal CLint on UGT1A10 (human, recombinant UGT1A10, pH 7.4) worked out at 18 µL/min/mg; on UGT1A8 (human, recombinant UGT1A8, pH 7.4) it was 172 µL/min/mg. The Michaelis constant (Km) at 20 min in data set [1] (both, human, intestinal microsomes, pH 7.4) worked out at 8.3 ± 3.5 µM. Moreover, the Km at 60 min amounted to 6.3 ± 3.6 µM in data set [2] (M1 formation) and 24.2 ± 5.7 µM in data set [2] (M2 formation). Further, on recombinant human UGT1A9, the GA glucuronidation activity is below 0.04 nmol/min/mg. The KSI is recorded as 36 ± 11 µM at UGT1A10 (UGT1A10, M2 formation) and 1.7 ± 0.4 µM at UGT1A8 (UGT1A8, M2 formation). For the same molecule, the “catalytic activity of UGT1A8 relative to other isoforms” value at UGT1A8 (2 µM GA, 0.1 mg/mL recombinant UGTs, 60 min) is recorded as “more than 5 fold”. The “Clint of UGT1A8 relative to other isoforms” value on UGT1A8 (recombinant UGTs) was “more than 5 fold”.
